Earlier results on two substances are cited in patent publication US20230346899A1 (priority 2022, published 2023).

This series relates to SARS-CoV-2. Particulars: moderate COVID-19 patients.

As to aprotinin, the “Median time to elimination of SARS-CoV-2 confirmed by RT-PCR, days (IQR)” value is recorded as 7.5 (6-9) days; the “Median time to improvement in clinical status by 2 points on the WHO-OSCI, days (IQR)” value is 11.0 (6-11) days; the “Median time to normalization of CRP concentration (≤10 mg/L) in patient's blood, days (IQR)” value was 6.0 (6-6) days; the “Median time to normalization of D-dimer concentration (<253 ng/mL) in patient's blood, days (IQR)” value is recorded as 4.5 (3-6) days. Also, the “Median time to normalization of body temperature (<37° C.), days (IQR)” value is 3.0 (2-3) days.

Regarding favipiravir [FVP + SOC)], the “Median time to elimination of SARS-CoV-2 confirmed by RT-PCR, days (IQR)” value is reported as 4.5 (4-9) days; the “Median time to improvement in clinical status by 2 points on the WHO-OSCI, days (IQR)” value is given as 14.0 (11.5-16) days; the “Median time to normalization of CRP concentration (≤10 mg/L) in patient's blood, days (IQR)” value is on record as 14.0 (5.5-14) days; the “Median time to normalization of body temperature (<37° C.), days (IQR)” value is on record as 2.0 (1-3) days.
